Experimental data from patent publication EP1614683B1, “Indazole compounds and pharmaceutical compositions for inhibiting protein kinases, and methods for their use” (priority 1999, dated 2001).
Read-outs that look alike come from different tables or passages of the source.

Tests used:
in vivo = settings: mouse, plasma, pH 2.3
[1] = for AUCleast: mouse, in vivo, pH 2.3
[2] = test system: VEGF dependent retinal vascular development; assay: In vivo assay of retinal vascular development in neonatal rats; design: species or system rat; settings: Model P8, intravitreal
Protocol: The development of the retinal vascular in rats occurs from postnatal day 1 to postnatal day 14 (P1-P14). […] To assess the ability of specific compounds to inhibit the activity of VEGF in vivo, compounds were formulated in an appropriate vehicle, usually 50% polyethylene glycol, average molecular weight 400 daltons, and 50% solution of 300 mM sucrose in deionized water. […] Six days after the intravitreal injection, the animals were sacrificed and the retinas dissected free from the remaining ocular tissue. […] The individual retinas are then flat-mount onto glass slides and examined to determine the extent of vascularization. […] The amount of vessel regression was used to assess the relative potency of the compounds after in vivo administration.
For more quantitative analysis of regression, images of ADPase-stained, flat-mounted retinas were captured with a digital camera attached to a dissecting microscope. Retinal images were then imported into an image analysis software (Image Pro Plus 4.0, Media Cybernetics, Silver Spring, MD). The software was employed to determine the percentage of the area of the retina that contained stained vessels. This value for the experimental eye was compared to that measured for the vehicle injected, contralateral eye from the same animal. The reduction in the vascular area seen in the eye that received compound as compared to the vehicle-injected eye was then expressed as the "percent regression" for that sample.

in vitro = in vitro ADME, human; settings: 2 h
How it was run: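 HLM diluted to 5 mg/mL in 100 mM KPO4, preincubated 10 min at 37 °C with NADPH-regenerating system. Compound (5 µM final) incubated at 37 °C in triplicate, sampled at 0 and 2 h into ice-cold acetonitrile, then LC-MS analysis.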

LCK tyrosine kinase = LCK tyrosine kinase (Homo sapiens, UniProt P06239, C224D/P223M); assay: LCK spectrophotometric assay; assay type: biochemical; settings: Table 1; compound concentration 1 µM; read-out: Lck-P* (% inhibition)
Protocol: The spectrophotometric assay was carried out as described above for VEGF-R2, except for the following changes in concentration: LCK = 60 nM, MgCl2 = 0 mM, poly(E4Y1) = 20 mM.

human FGF-R1 = human FGF-R1 (Homo sapiens, UniProt P11362, C488A/C584S/L457V); assay: FGF-R spectrophotometric assay; assay type: biochemical; settings: Table 1; compound concentration 1 µM; read-out: FGF-P* (% inhibition)
Protocol: The spectrophotometric assay was carried out as described above for VEGF-R2, except for the following changes in concentration: FGF-R = 50 nM, ATP = 2 mM, and poly(E4Y1) =15 mM.

[3] = biological target: unphosphorylated VEGF-R2Δ50 (Homo sapiens, UniProt P35968, DEL940-989/E990V); assay: biochemical; settings: read-out: FLVK ** (% inhibition)
[4] = test system: human umbilical vein endothelial cells (HUVEC); assay: HUVEC proliferation assay (VEGF-stimulated, MTT); assay type: cell-based; settings: Homo sapiens, HUVEC, Table 1
[5] = IP, 25 mg/kg, vehicle PEG400:H2O pH 2.3 30:70
[6] = PO, 50 mg/kg, vehicle PEG400:H2O pH 2.3 30:70
[7] = PO, 50 mg/kg, vehicle PEG400:H2O pH 2.3 60:40
[8] = 5 mg/ml, vehicle PEG/water 50:50
[9] = + albumin, read-out: HUVEC + albumin IC50
[10] = human liver microsomes, 5 µM test compound, 37 °C

LCK tyrosine kinase, sequence (P06239 223-509 P223M/C224D): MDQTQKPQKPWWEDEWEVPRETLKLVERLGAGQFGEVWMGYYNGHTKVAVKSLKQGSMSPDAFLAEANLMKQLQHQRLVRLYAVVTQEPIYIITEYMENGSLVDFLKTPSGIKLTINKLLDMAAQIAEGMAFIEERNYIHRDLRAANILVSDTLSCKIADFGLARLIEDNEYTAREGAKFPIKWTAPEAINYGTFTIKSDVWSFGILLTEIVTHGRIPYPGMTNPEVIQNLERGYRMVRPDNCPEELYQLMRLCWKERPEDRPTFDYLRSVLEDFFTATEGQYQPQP
human FGF-R1, sequence (P11362 456-766 L457V/C488A/C584S): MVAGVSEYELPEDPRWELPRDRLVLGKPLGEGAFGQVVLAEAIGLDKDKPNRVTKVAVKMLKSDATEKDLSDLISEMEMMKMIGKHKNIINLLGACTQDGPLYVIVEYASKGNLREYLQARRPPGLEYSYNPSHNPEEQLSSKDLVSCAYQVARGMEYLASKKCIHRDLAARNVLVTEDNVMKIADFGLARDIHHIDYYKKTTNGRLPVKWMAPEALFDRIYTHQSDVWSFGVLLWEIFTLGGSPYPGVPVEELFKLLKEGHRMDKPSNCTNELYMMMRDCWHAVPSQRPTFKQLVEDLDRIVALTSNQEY
unphosphorylated VEGF-R2Δ50, sequence (P35968 with tags, fused parts or gaps DEL940-989/E990V limits assumed): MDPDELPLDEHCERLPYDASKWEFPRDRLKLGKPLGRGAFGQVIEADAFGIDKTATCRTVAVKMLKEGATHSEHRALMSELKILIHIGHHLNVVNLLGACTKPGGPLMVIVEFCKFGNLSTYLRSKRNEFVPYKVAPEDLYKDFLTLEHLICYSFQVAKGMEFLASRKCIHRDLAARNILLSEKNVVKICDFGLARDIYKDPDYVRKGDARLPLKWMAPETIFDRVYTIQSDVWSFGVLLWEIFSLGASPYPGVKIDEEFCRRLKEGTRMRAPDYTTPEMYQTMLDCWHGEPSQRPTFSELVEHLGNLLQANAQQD

SMILES | % Inhibition [2, 8] [%] | inhibition at 1 µM (LCK tyrosine kinase) [%] | inhibition at 1 µM (human FGF-R1) [%] | IC50 [4, 9] [nM] | % remain (HLM, 2 h) (in vitro; [10]) [%] | further results
CCn1nc(C)cc1C(=O)Nc1cccc(C(=O)c2ccc3c(/C=C/c4ccccn4)n[nH]c3c2)c1 [41 (a)] | – | – | – | – | – | AUC (in vivo; ip, 25 mg/kg): 92800 ng·h/mL; AUC (in vivo; po, 50 mg/kg): 49000 ng·h/mL; T1/2 [1, 5]: 2.9 h; T1/2 [1, 6]: 3.4 h; % Inhibition ([2]; 1 mg/ml, vehicle PEG/water 50:50): 4%
CC(=O)c1ccc(C(=O)Nc2cccc(C(=O)c3ccc4c(/C=C/c5ccccn5)n[nH]c4c3)c2)s1 [41 (e)] | 8 | – | – | – | – | AUC (in vivo; ip, 25 mg/kg): 4900 ng·h/mL; AUC (in vivo; po, 50 mg/kg): 302 ng·h/mL; T1/2 ([1]; IP, 25 mg/kg, vehicle PEG400:H2O pH 2.3 60:40): 1.6 h; Cmin (7 hr conc.) [1, 7]: 7 ng/mL; T1/2 [1, 7]: 1.6 h
CC1CC1C(=O)Nc1cccc(C(=O)c2ccc3c(/C=C/c4ccccn4)n[nH]c3c2)c1 (stereo not drawn) [41 (h)] | – | – | – | – | – | AUC (in vivo; ip, 25 mg/kg): 26900 ng·h/mL; AUC (in vivo; po, 50 mg/kg): 4680 ng·h/mL; T1/2 [1, 5]: 1.2 h; Cmin (7 hr conc.) [1, 6]: 7 ng/mL; T1/2 [1, 6]: 0.7 h; % Inhibition ([2]; 5 mg/ml, vehicle PEG/water 70:30): 0%
O=C(c1cccc(NC(=O)c2ccc(Cl)s2)c1)c1ccc2c(/C=C/c3ccccn3)n[nH]c2c1 [41 (o)] | 2 | – | – | – | – | AUC (in vivo; po, 50 mg/kg): 14700 ng·h/mL; T1/2 [1, 6]: 1.7 h
Cc1cc(C(=O)Nc2cccc(C(=O)c3ccc4c(/C=C/c5ccccn5)n[nH]c4c3)c2)n(C)n1 [41 (p)] | 35 | – | – | – | – | AUC (in vivo; ip, 25 mg/kg): 4150 ng·h/mL; T1/2 [1, 5]: 5.5 h
CCCn1nc(C)cc1C(=O)Nc1cccc(C(=O)c2ccc3c(/C=C/c4ccccn4)n[nH]c3c2)c1 [41 (r)] | – | – | – | – | – | AUCleast ([1]; ip, 25 mg/kg): > 23752 ng·h/mL; AUCleast ([1]; po, 50 mg/kg): > 17789 ng·h/mL; Initial Evaluation [2, 8]: +/++ var
C#CCNC(=O)c1ccccc1Nc1ccc2c(/C=C/c3ccccn3)n[nH]c2c1 [Example 39(b), 6-[2-(Prop-2-ynylcarbamoyl)phenylamino]-3-E-[2-(pyridin-2-yl)ethenyl]-1H-indazole] | 9 | – | – | – | – | % remain (HLM, 2 h) (in vitro; human, microsomes, 5 µM): 67%
Cc1nc(/C=C/c2n[nH]c3cc(C(=O)c4cccc(NC(=O)c5ccccc5)c4)ccc23)cs1 [Example 42(c)] | 36 | – | – | – | – | –
Cc1cc(C(=O)Nc2cc(Nc3ccc4c(/C=C/c5ccccn5)n[nH]c4c3)ccc2F)n(C)n1 [Example 49(a), 6-[N-(3-((1,3-Dimethyl-1H-pyrazol-5-yl)carboxamido)-4-fluorophenyl)amino]-3-E-[2-(pyridin-2-yl)ethenyl]-1H-indazole] | 54 | – | – | – | – | –
Cc1cc(C(=O)Nc2cc(Nc3ccc4c(/C=C/c5ccccn5)n[nH]c4c3)ccc2C)n(C)n1 [Example 49(b), 6-[N-(3-((1,3-Dimethyl-1H-pyrazol-5-yl)carboxamido)-4-methylphenyl)amino]-3-E-[2-(pyridin-2-yl)ethenyl]-1H-indazole] | 5 | 9 | 80 | – | – | inhibition at 0.05 µM [3]: 98%
CS(=O)(=O)c1ccc(C(=O)Nc2cccc(Oc3ccc4c(/C=C/c5ccccn5)n[nH]c4c3)c2)s1 [Reference Example 31(c), 6-[3-((5-methylsulfonylthien-2-yl)carboxamido)phenoxy]-3-E-[2-(pyridin-2-yl)ethenyl]-1H-indazole] | – | 81 | 98 | 11.4 | 87 | Initial Evaluation [2, 8]: +/++ var
O=C(NCC(F)(F)F)c1ccccc1Sc1ccc2c(/C=C/c3ccccn3)n[nH]c2c1 [Reference Example 33(f), 6-[2-(2,2,2-trifluoroethylcarbamoyl)phenylsulfanyl]-3-E-[2-(pyridin-2-yl)ethenyl]-1H-indazole] | 20 | – | – | 17 | 31 | –
CCCNC(=O)c1ccccc1Sc1ccc2c(/C=C/c3ccccn3)n[nH]c2c1 [Reference Example 35(a), 6-[2-(n-Propylcarbamoyl)phenylsulfanyl]-3-E-[2-(pyridin-2-yl)ethenyl]-1H-indazole] | 4 | 12 | 59 | 2.1 | 33 | inhibition at 0.05 µM [3]: 76%
O=C(NC1CCC1)c1ccccc1Sc1ccc2c(/C=C/c3ccccn3)n[nH]c2c1 [Reference Example 35(c), 6-[2-(Cyclobutylcarbamoyl)phenylsulfanyl]-3-E-[2-(pyridin-2-yl)ethenyl]-1H-indazole] | 0 | 11 | 42 | 6.3 | 17 | inhibition at 0.05 µM [3]: 76%
C=CCONC(=O)c1ccccc1Sc1ccc2c(/C=C/c3ccccn3)n[nH]c2c1 [Reference Example 35(j), 6-[2-(Allyloxycarbamoyl)phenylsulfanyl]-3-E-[2-(pyridin-2-yl)ethenyl]-1H-indazole] | 7 | – | – | – | – | –
O=C(NCC1CC1)c1ccccc1Sc1ccc2c(/C=C/c3ccccn3)n[nH]c2c1 [Reference Example 35(v), 6-[2-(Cyclopropylmethyl-carbamoyl)phenylsulfanyl]-3-E-[2-(pyridin-2-yl)ethenyl]-1H-indazole] | 20 | 11 | 59 | 22 | 26 | inhibition at 0.05 µM [3]: 72%
Cc1cc(C(=O)Nc2cccc(C(=O)c3ccc4c(/C=C/c5ccccn5)n[nH]c4c3)c2)n[nH]1 [Reference Example 41(g), 6-[3-((5-methyl-1H-pyrazol-3-yl)carboxamido)benzoyl]-3-E-[2-(pyridin-2-yl)ethenyl]-1H-indazole] | 37 | 36 | 95 | > 10 | 52 | IC50 ([4]; read-out: HUVEC IC50): 0.9 nM
O=C(c1cccc(NC(=O)C2CC2)c1)c1ccc2c(/C=C/c3ccccn3)n[nH]c2c1 [Reference Example 41(k), 6-[3-(cyclopropylcarboxamido)benzoyl]-3-E-[2-(pyridin-2-yl)ethenyl]-1H-indazole] | 1 | 20 | 49 | 48 | – | –
Cc1cc(C(=O)Nc2cccc(C(=O)c3ccc4c(/C=C/c5ccccn5)n[nH]c4c3)c2)on1 [Reference Example 41(m), 6-[3-((3-methylisoxazol-5-yl)carboxamido)benzoyl]-3-E-[2-(pyridin-2-yl)ethenyl]-1H-indazole] | 10 | 40 | 67 | 23 | 0 | –
Cc1cc(C(=O)Nc2cc(C(=O)c3ccc4c(/C=C/c5ccccn5)n[nH]c4c3)c(C)cc2C)n(C)n1 [Reference Example 41(mm), 6-[2,4-dimethyl-5-((1,3-dimethyl-1H-Pyrazol-5-yl)carboxamido)benzoyl]-3-E-[2-(pyridin-2-yl)ethenyl]-1H-indazole] | – | – | – | – | – | Initial Evaluation [2, 8]: + (one plus being detectable regression judged to be approximately 25 percent or less)
Cn1nc(C(C)(C)C)cc1C(=O)Nc1cccc(C(=O)c2ccc3c(/C=C/c4ccccn4)n[nH]c3c2)c1 [Reference Example 41(n), 6-[3-((3-t-butyl-1-methyl-1H-pyrazol-5-yl)carboxamido)benzoyl]-3-E-[2-(pyridin-2-yl)ethenyl]-1H-indazole] | 2 | 66 | 87 | – | 70 | –
